Data set [1] can be described thus: Drug related lethality is percent animals in treated groups dying prior to first tumor related death in untreated groups measured in BDF1 mice after ip administration at 8 mg/kg dose days 3,7,11 after tumor challenge. The format is toxicity, organism-based. More on the design: dose 8 mg/kg, route intraperitoneal. As to conditions: BDF1, mus sp., in vivo, read-out: Lethality.

The test system of data set [2] is Mus sp. Nature of the data set: In vivo activity measured against 3LL metastasis in BDF1 mice after ip administration at 16 mg/kg dose, dosing on days 3,7,11 after tumor challenge. The note with it: route intraperitoneal. The format is functional.
Data set [3] has as its system Mus sp. Nature of the data set: In vivo activity measured against 3LL metastasis in BDF1 mice after ip administration at 8 mg/kg dose, dosing on days 3,7,11 after tumor challenge. Format: functional. The note with it: route intraperitoneal.
The test system of data set [4] is Mus sp. Nature of the data set: In vivo activity measured against 3LL metastasis in BDF1 mice after ip administration at 32 mg/kg dose, dosing on days 3,7,11 after tumor challenge. Format: functional. The note with it: route intraperitoneal.
Data set [5] is described as follows: Drug related lethality is percent animals in treated groups dying prior to first tumor related death in untreated groups measured in BDF1 mice after ip administration at 16 mg/kg dose days 3,7,11 after tumor challenge. The format is toxicity, organism-based. More on the design: dose 16 mg/kg, route intraperitoneal. The note with it: BDF1, mus sp., in vivo, read-out: Lethality.

A short description of data set [6]: Drug related lethality is percent animals in treated groups dying prior to first tumor related death in untreated groups measured in BDF1 mice after ip administration at 32 mg/kg dose days 3,7,11 after tumor challenge. Further details: dose 32 mg/kg, route intraperitoneal. The note with it: BDF1, mus sp., in vivo, read-out: Lethality. Format: toxicity, organism-based.

The test system of data set [7] is Mus sp. The data set is described as follows: Drug related lethality is percent animals in treated groups dying prior to first tumor related death in untreated groups measured in BDF1 mice after ip administration at 5 mg/kg dose 3 days after tumor challenge. Format: toxicity, organism-based. Further details: dose 5 mg/kg, route intraperitoneal. As to conditions: in vivo, 72 h.

Data set [8] has as its system Mus sp. Nature of the data set: Drug related lethality is percent animals in treated groups dying prior to first tumor related death in untreated groups measured in BDF1 mice after ip administration at 10 mg/kg dose 3 days after tumor challenge. Format: toxicity, organism-based. Further details: dose 10 mg/kg, route intraperitoneal. The note with it: in vivo, 72 h.

Data set [9] has as its system Mus sp. The data set is described as follows: In vivo activity measured against 3LL metastasis in BDF1 mice after ip administration at 10 mg/kg dose, dosing on days 3 after tumor challenge. Further details: dose 10 mg/kg. The format is functional, organism-based.
The subject of data set [10] is Mus sp. The data set is described as follows: In vivo activity measured against 3LL metastasis in BDF1 mice after ip administration at 5 mg/kg dose, dosing on days 3 after tumor challenge. Format: functional, organism-based. Further details: dose 5 mg/kg.

As a reminder, the T/C is the ratio of treated to control. On to `COc1cc([C@@H]2c3cc4c(cc3[C@@H](O[C@@H]3O[C@@H]5CO[C@@H](C)O[C@H]5[C@H](O)[C@H]3O)[C@H]3COC(=O)[C@H]23)OCO4)cc(OC)c1O` [ETOPOSIDE], for which the mortality was found to be 0% in [1], 0% in data set [5] and 7% in data set [6]. Further, the T/C with Mus sp. [2] turned out to be 128%; in the data set with Mus sp. [3] it was 118%; with Mus sp. [4] it was 130%.
For the molecule CISPLATIN [listing 1 of 2 here], the Lethality with Mus sp. [7] and with Mus sp. [8] was 0% each time.
Take CISPLATIN [listing 2 of 2 here]: the T/C amounted to 116% in the data set with Mus sp. [9] and 112% in the data set with Mus sp. [10].

These data come from ChEMBL document CHEMBL1125643, “N-(5-fluorobenzothiazol-2-yl)-2-guanidinothiazole-4-carboxamide. A novel, systemically active antitumor agent effective against 3LL Lewis lung carcinoma” (J Med Chem, 1991).
